Data: PMC6522510 (Nature Communications, 2019)
Structures can show the parent of a compound that is named as a salt. Where two headings read alike, the source gives them in different places.

What was measured:
Design in all cases: species or system AML cell lines (8); Primary HTS, single concentration about 10 uM, Cell Titer Glo viability; log10 luminescence, per cent inhibition relative to cycloheximide control
Settings in all cases: 72 h, relative to cycloheximide control, log10 luminescence, inhibitor
[1] = test system: ML-2
[2] = test system: U937
[3] = test system: MOLM-13
[4] = test system: MV4-11
[5] = test system: M07e
[6] = test system: CMK
[7] = test system: CMS
[8] = test system: CHRF288-11

SMILES	ML-2 %inh ([1]; ML-2 %inh, 10 µM)	U937 %inh ([2]; U937 %inh, 10 µM)	MOLM-13 %inh ([3]; MOLM-13 %inh, 10 µM)	MV4-11 %inh ([4]; MV4-11 %inh, 10 µM)	M07e %inh ([5]; M07e %inh, 10 µM)	CMK %inh ([6]; CMK %inh, 10 µM)	CMS %inh ([7]; CMS %inh, 10 µM)	CHRF288-11 %inh ([8]; CHRF288-11 %inh, 10 µM)	ML-2 %inh [1]	U937 %inh [2]	MOLM-13 %inh [3]	MV4-11 %inh [4]	M07e %inh [5]	CMK %inh [6]	CMS %inh [7]	CHRF288-11 %inh [8]
CC1/C=C/C=C/C=C/C=C/C=C/C=C/C=C/C(OC2O[C@H](C)[C@@H](O)[C@H](N)[C@@H]2O)CC(O)C(C(=O)O)C(O)CC(=O)CC(O)CC(O)CC(O)CC(=O)CCCC(=O)CC(=O)OC1C(C)CC(C)C(O)CC(=O)c1ccc(N)cc1 (single isomer, unassigned) [SJ000565161-1, CANDICIDIN]	42.43%	16.5%	72.78%	39.81%	2.094%	120.6%	12.57%	56.49%								
CC1/C=C/C=C/C=C/C=C/C=C/C=C/C=C/C(OC2O[C@H](C)[C@@H](O)[C@H](N)[C@@H]2O)CC(O)C(C(=O)O)C(O)CC(=O)CC(O)CC(O)CC(O)CC(=O)CCCC(=O)CC(=O)OC1C(C)CC(C)C(O)CC(=O)c1ccc(N)cc1 (single isomer, unassigned) [SJ000565161-2, CANDICIDIN]	-0.08515%	-1.702%	0.5936%	0.2404%	-1.61%	-1.968%	0.8019%	84.68%								
O=c1ncnc2n([C@H]3O[C@@H](CO)[C@H](O)[C@@H]3O)[nH]cc1-2 (stereo in doubt) [SJ000562682-1, ALLOPURINOL RIBOSIDE]									0.3274%	0.8426%	4.507%	0.9814%	-1.058%	1.077%	-1.89%	1.868%
CO[C@H]1/C=C/O[C@@]2(C)Oc3c(C)c(O)c4c(O)c(c(/C=N/N5CCN(C)CC5)c(O)c4c3C2=O)NC(=O)/C(C)=C\C=C\[C@H](C)[C@H](O)[C@@H](C)[C@@H](O)[C@@H](C)[C@H](OC(C)=O)[C@@H]1C [SJ000000850-5, RIFAMPIN | RIFAMPICIN]	5.116%	3.295%	-1.813%	3.37%	0.4502%	-4.011%	9.631%	0.3238%								
CO[C@H]1/C=C/O[C@@]2(C)Oc3c(C)c(O)c4c(O)c(c(/C=N/N5CCN(C)CC5)c(O)c4c3C2=O)NC(=O)/C(C)=C\C=C\[C@H](C)[C@H](O)[C@@H](C)[C@@H](O)[C@@H](C)[C@H](OC(C)=O)[C@@H]1C [SJ000000850-6, RIFAMPIN | RIFAMPICIN]	3.762%	3.577%	5.052%	5.189%	0.5367%	-0.3986%	11.96%	0.456%								
CO[C@H]1/C=C/O[C@@]2(C)Oc3c(C)c(O)c4c(O)c(c(/C=N/N5CCN(C)CC5)c(O)c4c3C2=O)NC(=O)/C(C)=C\C=C\[C@H](C)[C@H](O)[C@@H](C)[C@@H](O)[C@@H](C)[C@H](OC(C)=O)[C@@H]1C [SJ000000850-7, RIFAMPIN | RIFAMPICIN]	2.607%	2.422%	4.02%	6.955%	2.856%	0.4994%	16.96%	22.26%								
COc1cc2nc(N3CCN(C(=O)C4COc5ccccc5O4)CC3)nc(N)c2cc1OC (stereo not drawn) [SJ000113084-6, DOXAZOSIN MESYLATE]									-0.964%	1.071%	9.986%	-1.195%	-1.557%	9.497%	0.401%	36.53%
N#Cc1c(NC(=O)c2ccccc2F)sc2c1CCCC2 [SJ000121296-2, R15619/66/1]									8%	21.81%	0.9257%	-1.785%	15.03%	11.25%	2.048%	1.937%
CC(=O)[C@H]1CC[C@H]2[C@@H]3CC=C4C[C@@H](O)CC[C@]4(C)[C@H]3CC[C@]12C [SJ000281777-6, PREGNENOLONE]									0.5574%	3.219%	2.085%	6.672%	1.706%	-1.238%	6.885%	0.2511%
O=c1oc2ccccc2c(O)c1Cc1c(O)c2ccccc2oc1=O [SJ000285189-5, DICUMAROL]	-1.314%	-0.6%	-3.706%	-2.098%	-2.456%	-3.554%	-1.99%	8.973%								
O=c1oc2ccccc2c(O)c1Cc1c(O)c2ccccc2oc1=O [SJ000285189-6, DICUMAROL]	-0.8259%	-0.6405%	0.9251%	0.4793%	0.4208%	-0.9245%	-1.661%	3.41%								
C[C@H]1O[C@@H](O[C@H]2[C@@H](O)C[C@H](O[C@H]3[C@@H](O)C[C@H](O[C@H]4CC[C@@]5(C)[C@H](CC[C@@H]6[C@@H]5CC[C@]5(C)[C@@H](C7=CC(=O)OC7)CC[C@]65O)C4)O[C@@H]3C)O[C@@H]2C)C[C@H](O)[C@@H]1O [SJ000285233-4, DIGITOXIN]	57.88%	77.98%	81.14%	82.27%	114.3%	102%	96.1%	102.9%								
C[C@H]1O[C@@H](O[C@H]2[C@@H](O)C[C@H](O[C@H]3[C@@H](O)C[C@H](O[C@H]4CC[C@@]5(C)[C@H](CC[C@@H]6[C@@H]5CC[C@]5(C)[C@@H](C7=CC(=O)OC7)CC[C@]65O)C4)O[C@@H]3C)O[C@@H]2C)C[C@H](O)[C@@H]1O [SJ000285233-5, DIGITOXIN]	58.4%	78.87%	87.24%	76.58%	112.2%	108.7%	97.86%	112.4%								
Cn1cnc([N+](=O)[O-])c1Sc1ncnc2[nH]cnc12 [SJ000285241-8, AZATHIOPRINE]									14.66%	-0.6587%	36.41%	14.19%	7.374%	49.74%	0.5483%	14.99%
Cc1ccc2cc3c(ccc4ccccc43)c3c2c1CC3 [SJ000285253-3, 3-METHYLCHOLANTHRENE]									4.978%	0.01725%	2.389%	4.129%	0.9432%	1.143%	3.804%	5.022%
Oc1c(Cl)cc(Cl)c(Cl)c1Cc1c(O)c(Cl)cc(Cl)c1Cl [SJ000285273-4, HEXACHLOROPHENE]									15.89%	24.03%	75.15%	7.526%	10.84%	117.7%	32.47%	23.59%
O=C(O)P(=O)(O)O [SJ000285291-3, FOSCARNET SODIUM]									-0.9621%	-2.189%	3.283%	0.7745%	-4.14%	3.052%	0.8709%	-2.096%
CN[C@@H]1[C@H](O[C@H]2[C@H](O[C@H]3[C@H](O)[C@@H](O)[C@H](N=C(N)N)[C@@H](O)[C@@H]3N=C(N)N)O[C@@H](C)[C@]2(O)C=O)O[C@@H](CO)[C@H](O)[C@H]1O [SJ000285297-4, STREPTOMYCIN SULFATE]	-3.476%	-1.404%	1.953%	-1.642%	-4.718%	3.295%	-1.268%	6.76%								
